Test results from US20160354402A1, “COMPOSITIONS” (GLOBALACORN LTD, priority 2013, published 2016).
“Also recorded” adds a separate entry of the source.

Key:
[1] = system: CA1 pyramidal neurons in hippocampal slices; experiment: Ex vivo murine hippocampal slice model of epilepsy (picrotoxin, Mg2+-free); type: cell-based, mouse; conditions: epileptic conditions: picrotoxin 100 μM, Mg2+ free perfusion solution; dose response
Protocol: Slices were prepared and used as described previously (Melnik S, Wright M, Tanner J A, Tsintsadze T, Tsintsadze V, Miller A D, Lozovaya N (2006) Diadenosine polyphosphate analog controls postsynaptic excitation in CA3-CA1 synapses via a nitric oxide-dependent mechanism. J Pharmacol Exp Ther 318 (2):579-588. doi:10.1124/jpet.105.097642).
Slices were prepared as described previously (Melnik S, Wright M, Tanner J A, Tsintsadze T, Tsintsadze V, Miller A D, Lozovaya N (2006) Diadenosine polyphosphate analog controls postsynaptic excitation in CA3-CA1 synapses via a nitric oxide-dependent mechanism. J Pharmacol Exp Ther 318 (2):579-588. doi:10.1124/jpet.105.097642). Addition of picrotoxin (100 μM) and removal of Mg^2+ in the perfusion solution induced spontaneous epileptiform events lasted for 5-10 s (FIG. 7). […] In the continued presence of picrotoxin and Mg^2+ free extracellular solution, bursting at this rate continued for at least 2 h. The effects of AppCH2ppA administration were monitored post slice administration ex vivo (FIGS. 8 and 9a).

[2] = system: L5 interneurons in cortical slices from Tsc1+/− mice; experiment: Ex vivo whole-cell patch-clamp recordings in cortical slices from Tsc1+/− mice; type: cell-based, mouse
Protocol: Wild type and Tsc1^+/− mice (P14-P16) were anaesthetized with ether and killed by decapitation in agreement with the European Directive 86/609/EEC requirements. The brain was rapidly removed and placed in an oxygenated ice-cold saline buffer. Transverse 300 μm-thick coronal slices were cut using a vibratome (Leica VT1000S; Leica Microsystems Inc., Deerfield, Ill.) in ice-cold protecting solution oxygenated with 95% O2 and 5% of CO2. Prior to recording, slices were incubated in an artificial cerebrospinal fluid (ACSF) solution containing (in mM): 125 NaCl, 3.5 KCl, 1 CaCl2, 2 MgCl2, 1.25 NaH2PO4, 26 NaHCO3, and 10 glucose, equilibrated at pH 7.3 with 95% O2 and 5% CO2 at room temperature (22-25° C.) for at least 1 h to allow recovery.
Slices were transferred to the recording chamber and perfused with oxygenated recording ACSF at 3 ml/min. Neurons were visualized using infrared differential interference contrast (IR-DIC) microscopy. […] It was not compensated and was monitored during each experiment. […]
Wild type and Tsc1^+/− mice (P14-P16) were anaesthetized, their brains removed rapidly and placed in an oxygenated ice-cold saline buffer. […] The effects of AppCH2ppA administration were monitored post slice administration ex vivo. […]

[3] = system: Tsc1+/− mice; experiment: In vivo intracortical EEG recordings of spontaneous seizures in Tsc1+/− mice (mouse model of Tuberous Sclerosis); conditions: i.p. injection
Protocol: This study followed the Institut National de la Santé et de la Recherche Médicale guidelines for animal care. All experiments were performed on postnatal days P9-P20 of inbred C57Bl6 strain of both sexes of Tsc1^mut/wt (Tsc1^+/−) mice issued from breeding of C57Bl6 Tsc1^wt females and Tsc1^mut/wt males Tsc1^mut/wt.
Surgery was performed under isoflurane anesthesia. In brief, the skull of the animal was cleaned of skin and periosteum. The skull was covered by glue and dental cement except for a 4-9 mm^2 window above the somatosensory cortex from one or two hemispheres. Two plastic bars were fixed to the nasal and occipital bones of the pups head by dental cement. After surgery, animals were warmed, and left for an hour for recovery from anesthesia. During recordings, the head was fixed to the frame of the stereotaxic apparatus by attached bars; animals were surrounded by a cotton nest and heated via a thermal pad (36.6° C.-37.7° C.). […]
Electroencephalography (EEG) recordings were performed in non-anesthetized head-restrained Tsc1^+/− and control Tsc1^wt mice. […] Recordings were analyzed off-line using Clampfit and MATLAB software. […] During EEG recordings animals were monitored visually to determine behavioral correlates of each electrographic epileptic discharge. […] Local field potentials were analyzed by the custom-written, MATLAB based programs. […]

| Compound | antiepileptic effect on frequency of epileptiform discharges [1] | spontaneous glutamatergic activity from L5 interneurons ([2]; bath administration, 10 μM, Vh=−70 mV, cortical slices from Tsc1+/− mice) | seizure like electrical impulses on individual cortical neurons ([2]; ex vivo, cortical slices, P14-P16 mice) | anti-epileptic effect (spontaneous seizure activity) ([3]; 30 μM in 200 μl (6 nmol; 300 nmol/kg or 0.25 mg/kg), Tsc1+/− mice) | anti-epileptic effect (spontaneous seizure activity) ([3]; 100 μM in 200 μl (20 nmol; 1000 nmol/kg or 0.84 mg/kg), Tsc1+/− mice P14-P16) |
| --- | --- | --- | --- | --- | --- |
| Nc1ncnc2c1ncn2[C@@H]1O[C@H](COP(=O)(O)OP(=O)(O)NP(=O)(O)OP(=O)(O)OC[C@H]2O[C@@H](n3cnc4c(N)ncnc43)[C@H](O)[C@@H]2O)[C@@H](O)[C@H]1O [AppNHppA] | completely inactive |  |  |  |  |
| Nc1ncnc2c1ncn2[C@@H]1O[C@H](COP(=O)(O)OP(=O)(O)CP(=O)(O)OP(=O)(O)OC[C@H]2O[C@@H](n3cnc4c(N)ncnc43)C(O)C2O)C(O)C1O (some centres unmarked) [AppCH2ppA] |  | desensitizes glutamatergic activity relative to control | inhibits seizure like electrical impulses | partial | eliminates seizures virtually completely; also recorded: essentially complete anti-epileptic effect |
